Series [1] in a line: Dynamic light scattering (DLS) particle size of compounds and compound-pmaxGFP complexes. The class given is physicochemical. To be noted: 25 °C, n = 3; for hydrodynamic diameters, pMAXGFP (-) / PDI (polydispersity index), pMAXGFP (-): compound alone without plasmid, in water; for hydrodynamic diameters, pMAXGFP (-): 2.5 mg/mL as printed, 10 s runs, Litesizer DIA 500, mean ± SD; for PDI (polydispersity index), pMAXGFP (-) / PDI (polydispersity index), pMAXGFP (+) / hydrodynamic diameters, pMAXGFP (+): mean ± SD; for PDI (polydispersity index), pMAXGFP (+) / hydrodynamic diameters, pMAXGFP (+): compound-DNA plasmid complex, N/P 1.5/1, in water. On the procedure:
Dynamic light scattering (DLS) measurements were performed using the Litesizer DIA 500 (Anton Par, Ostfildern-Scharnhausen, Germany). The concentration of the compounds in water was 2.5 mg/mL, with the inclusion of a DNA plasmid to maintain a charge-to-ratio of 1.5/1 N/P. For system 1:1.5, the concentration of each compound was 0.61 µM; for 3:1–1.21 µM; for 9:1–3.64 µM. The DNA plasmid concentration remains constant and equal at 0.46 nM. The particle size series mode was used in a cuvette with a volume of […]. Each run was recorded at 25 °C for 10 s.

Series [2] relates to HEK-293T cell line (spheroids). Put plainly: Transfection efficacy of GFP plasmid (pmaxGFP) in 3D model. To be noted: HEK-293T spheroids. The class given is cell-based. Here is the method: (§1) The HEK-293T cell line was cultured using both 2D and 3D techniques. The non-adherent method of forming spheroids was used. Cells (750 cells per well) were seeded in a 96-well U-shaped plate BIOFLOAT (Sarstedt, Nümbrecht, Germany). The HEK-293T cells were cultured at 37 °C in 5% CO2 in Dulbecco’s modified Eagle medium (DMEM; high glucose) supplemented with 10% fetal bovine serum (FBS) and 1% penicillin–streptomycin solution containing 100 units of penicillin and 100 µg/mL of streptomycin. After three days of culturing, the spheroids were formed and ready for further experiments.
Cells were cultured for 72 h under the conditions described above. Mixtures of the selected compounds and pmaxGFP plasmid in N/P ratios (charge peptidomimetic/charge pmaxGFP) of 1.5, 3:1, and 9:1 were incubated for 30 min and used immediately. An appropriate control with plasmid was employed. To each well with spheroids, 10 µL of the mixture described above was added in triplicate up to 90 µL of the full medium. The plate was then incubated at 37 °C with 5% CO2 for 5 h, washed (3 × medium), and cultured for another 72 h. After this process, the cells were inspected under a fluorescent microscope (Olympus IX51 fluorescence microscope (Olympus, Tokyo, Japan)). The molar concentration of particular components was equal to, for system 1:1.5, the concentration of each compound at 0.61 µM; for 3:1–1.21 µM; for 9:1–3.64 µM. The DNA plasmid concentration remains constant and equal at 0.46 nM.

The test system of series [3] is spheroids of HEK-293T cells. Put plainly: Viability in 3D model, CellTiter Glo 3D (ATP). The series is classed as cell-based. To be noted: HEK-293T spheroids, 24 h incubation, tested 0, 1, 2, 5, 10, 20 and 50 µM, CellTiter Glo 3D luminescence; n = 3. Here is the method:
as §1
After culturing for 72 h, spheroids of HEK-293T cells were incubated with increasing amounts of the appropriate compounds (0, 1, 2, 5, 10, 20, and 50 µM) in the medium described above at 37 °C with 5% CO2. After 24 h, the plate was incubated at room temperature (RT) for 30 min, followed by the addition of 100 μL of CellTiter Glo 3D Cell Viability Assay reagent (Promega, Fitchburg, WI, USA). The plate was then covered from light and shaken for 30 min. Next, the contents of each well were transferred to a white flat bottom plate (Nunc A/S, Thermo Fisher, Odense, Denmark) and luminescence was read at 560 nm using the CLARIOstar (BMG Labtech, Ortenberg, Germany).

A short description of series [4]: Complex stability assessment by UV spectra (Nanodrop). To be noted: Nanodrop UV-Vis, time points 0, 0.5, 1, 2.5 and 5 h, transfection buffer and concentrations (Figure S2). The class given is physicochemical. Here is the method: The analysis of all obtained complexes was conducted using a Nanodrop 2000c UV-Vis spectrophotometer (Thermo Scientific, Waltham, MA, USA) at designated time points from 0 to 5 h (0, 0.5, 1, 2.5, and 5). The concentration of the individual components (DNA and the compound) was used as a reference. The concentration of the complexes remained constant in relation to the transfection experiments.

Consider “C2H3O-O2Oc-[Dap(GO2)]8-O2Oc-NH2 [compound 1]”, for which, in series [1], the “hydrodynamic diameters, pMAXGFP (-)” value is given as 309,0 ± 56,2 nm; the “PDI (polydispersity index), pMAXGFP (-)” value was 25,5 ± 2,9%; the “PDI (polydispersity index), pMAXGFP (+)” value is 30,1 ± 1,7%; the “hydrodynamic diameters, pMAXGFP (+)” value is 5580,7 ± 321,2 nm. Also, the “average fluorescence of spheroids (GFP production), N/P ratio 1.5:1” value in series [2] (compound 0.61 µM, plasmid 0.46 nM, 5 h incubation then 72 h culture, mean, n = 3) is on record as approximately 150 arbitrary units. Moreover, the “average fluorescence of spheroids (GFP production), N/P ratio 3:1” value in series [2] (compound 1.21 µM, plasmid 0.46 nM, 5 h incubation then 72 h culture, mean, n = 3) was “around 200 arbitrary units”. For the same substance, the “transfection efficacy ranking (GFP fluorescence), N/P ratio 9:1” value in series [2] (compound 3.64 µM, plasmid 0.46 nM, 5 h incubation then 72 h culture) was “superior fluorescence”. The “concentration up to which viability is not suppressed compared to non-treated cells (3D spheroids, ATP)” value in series [3] was “up to 5 µM”.

In the case of “C4H7O-O2Oc-[Dap(GO2)]8-O2Oc-NH2 [compound 2]”, in series [1], the “hydrodynamic diameters, pMAXGFP (-)” value is recorded as 337,2 ± 28,6 nm; the “PDI (polydispersity index), pMAXGFP (-)” value is reported as 27,8 ± 1,5%; the “PDI (polydispersity index), pMAXGFP (+)” value was 30,6 ± 2,5%; the “hydrodynamic diameters, pMAXGFP (+)” value is on record as 4761,0 ± 190,1 nm.

As to “C6H11O-O2Oc-[Dap(GO2)]8-O2Oc-NH2 [compound 3]”, in series [1], the “hydrodynamic diameters, pMAXGFP (-)” value was 599,5 ± 80,8 nm; the “PDI (polydispersity index), pMAXGFP (-)” value is reported as 23,5 ± 2,4%; the “PDI (polydispersity index), pMAXGFP (+)” value is listed as 30,7 ± 2,6%; the “hydrodynamic diameters, pMAXGFP (+)” value is 3006,0 ± 133,9 nm.

As to “C8H15O-O2Oc-[Dap(GO2)]8-O2Oc-NH2 [compound 4]”, the “stability of compound and compound-DNA complex: change of UV spectra over time” value in series [4] is on record as “do not show significant changes over time”. Also, in series [1], the “hydrodynamic diameters, pMAXGFP (-)” value was 508,9 ± 62,2 nm; the “PDI (polydispersity index), pMAXGFP (-)” value is recorded as 24,4 ± 2,3%; the “PDI (polydispersity index), pMAXGFP (+)” value is 29,4 ± 2,5%; the “hydrodynamic diameters, pMAXGFP (+)” value is on record as 3446,7 ± 208,5 nm.

In the case of “C10H19O-O2Oc-[Dap(GO2)]8-O2Oc-NH2 [compound 5]”, in series [1], the “hydrodynamic diameters, pMAXGFP (-)” value was 240,6 ± 36,9 nm; the “PDI (polydispersity index), pMAXGFP (-)” value is on record as 24,9 ± 2,2%; the “PDI (polydispersity index), pMAXGFP (+)” value is 34,3 ± 4,2%; the “hydrodynamic diameters, pMAXGFP (+)” value is on record as 4605,7 ± 90,9 nm.

Consider “C12H23O-O2Oc-[Dap(GO2)]8-O2Oc-NH2 [compound 6]”, for which, in series [1], the “hydrodynamic diameters, pMAXGFP (-)” value is 337,4 ± 17,7 nm; the “PDI (polydispersity index), pMAXGFP (-)” value is 23,2 ± 2,8%; the “PDI (polydispersity index), pMAXGFP (+)” value is recorded as 24,2 ± 1,6%; the “hydrodynamic diameters, pMAXGFP (+)” value is 283,7 ± 5,9 nm.

On to “C14H27O-O2Oc-[Dap(GO2)]8-O2Oc-NH2 [compound 7]”, for which, in series [1], the “hydrodynamic diameters, pMAXGFP (-)” value was 373,5 ± 59,7 nm; the “PDI (polydispersity index), pMAXGFP (-)” value is 25,6 ± 3,2%; the “PDI (polydispersity index), pMAXGFP (+)” value is listed as 21,2 ± 2,4%; the “hydrodynamic diameters, pMAXGFP (+)” value is 135,0 ± 3,2 nm.

In the case of “C16H31O-O2Oc-[Dap(GO2)]8-O2Oc-NH2 [compound 8]”, in series [1], the “hydrodynamic diameters, pMAXGFP (-)” value is reported as 517,6 ± 63,3 nm; the “PDI (polydispersity index), pMAXGFP (-)” value is recorded as 24,8 ± 1,9%; the “PDI (polydispersity index), pMAXGFP (+)” value is 26,3 ± 2,9%; the “hydrodynamic diameters, pMAXGFP (+)” value is 308,7 ± 22,7 nm. Besides, in series [2] (compound 0.61 µM, plasmid 0.46 nM, 5 h incubation then 72 h culture), the “transfection efficacy ranking (GFP fluorescence), N/P ratio 1.5:1” value is reported as “greatest fluorescence”.

Turning to “H-O2Oc-[Dap(GO2)]8-O2Oc-NH2 [1a, reference compound]”, in series [1], the “hydrodynamic diameters, pMAXGFP (-)” value is on record as 329,1 ± 39,3 nm; the “PDI (polydispersity index), pMAXGFP (-)” value was 18,3 ± 1,5%; the “PDI (polydispersity index), pMAXGFP (+)” value is reported as 29,9 ± 2,8%; the “hydrodynamic diameters, pMAXGFP (+)” value is reported as 2235,3 ± 48,0 nm. The “transfection efficacy ranking across all N/P series (1.5:1, 3:1, 9:1)” value in series [2] (pmaxGFP) is reported as “lowest in each series”.

These data come from PMC11990301, “Lipidated DAPEG Polymers as a Non-Toxic Transfection Agent—Influence of Fatty Acid Side Chain on Transfection Efficacy” (Molecules, 2025).
